As usually defined, the IC50 is the point on the concentration scale where inhibition reaches its midpoint. A word on the inhibition: it is the relative decrease from the control value, in per cent.

This passage reports IC50 and inhibition results from US6900200B2, “Tricyclic hydroxy carboxamides and derivatives thereof tocolytic oxytocin receptor antagonists” (Wyeth, priority 2001, dated 2005).

For the test, the target named is T1, human oxytocin receptor (Homo sapiens, UniProt P30559).
T1 construct: host or cells: CHO cells, pcDNA3.1 vector
T1 sequence (P30559 1-389): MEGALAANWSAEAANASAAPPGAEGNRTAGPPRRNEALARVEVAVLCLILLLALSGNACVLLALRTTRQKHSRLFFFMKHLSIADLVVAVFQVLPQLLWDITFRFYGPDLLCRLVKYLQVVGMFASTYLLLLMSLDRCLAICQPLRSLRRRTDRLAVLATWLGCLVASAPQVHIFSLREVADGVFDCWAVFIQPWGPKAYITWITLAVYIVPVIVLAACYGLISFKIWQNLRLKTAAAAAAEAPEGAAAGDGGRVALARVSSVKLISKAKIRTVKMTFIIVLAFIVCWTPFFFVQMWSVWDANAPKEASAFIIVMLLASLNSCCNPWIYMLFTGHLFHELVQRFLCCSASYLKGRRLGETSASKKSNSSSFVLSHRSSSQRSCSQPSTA
The test is described as follows: Oxytocin binding in CHO cell membranes expressing human oxytocin receptors ([3H]oxytocin radioligand binding). To be noted: for IC50: value printed in parentheses, read-out: OT (IC50); for inhibition at 0.1 µM: @ 100 nM, read-out: OT % inhibition @ 100 nM. The text has this:
Oxytocin Binding in Chinese Hamster Ovary Cell Membranes Expressing Human Oxytocin Receptors
Chinese Hamster Ovary (CHO) cells stably transfected with the human oxytocin receptor (cf. Tanizawa et al., U.S. Pat. No. 5,466,584 (1995) to Rohto Pharmaceutical Co. Ltd., Osaka, Japan) were obtained from M. Thibonnier, Case Western Reserve University School of Medicine, Cleveland, Ohio.
A. Passaging and Amplification of Cells
CHO cells transfected with the human oxytocin receptors obtained from M. Thibonnier (pcDNA3.1 vector) are allowed to grow to confluency (approx. >90%) in T-150 flasks under sterile conditions, in a cell culture medium of F-12 Nutrient Mixture (HAM) with L-glutamine (Gibco Cat. #11765-054) containing 15 mM HEPES (Gibco Cat. #15630-080), 1% antibiotic/antimycotic (add 5 mL 100×, Gibco Cat. #15240-062 per 500 mL F-12), 400 μg/mL of Geneticin (add 4 mL of 50 mg/mL per 500 mL F-12) and 10% Fetal Bovine Serum (Qualified, heat inactivated, Gibco Cat. #16140-063). The medium is removed by aspiration and the cells are washed with 10 mL of Hank's Balanced Salt solution (Gibco Cat. #14175-095). The salt solution is removed by aspiration and the cells trypsinized with 5 mL of trypsin-EDTA (0.05% trypsin, 0.53 mM EDTA-4Na, Gibco Cat. #25300-070) for 1 min. The trypsin is removed by aspiration and the cells dislodged by tapping. Cell Culture medium (e.g. 30 mL for 1:30 split) is immediately added and mixed well to inactivate trypsin. 1 mL of detached cells is added to new culture flasks containing fresh Cell Culture medium (e.g. into 25 mL per T-150 flask), and mixed gently. The cells are incubated at 37° C. in 5% CO2. The medium is changed at 3 to 4 days interval (or as appropriate). The cells grow to confluency (approx. >75%-95%) within 7-8 days. All steps are done under sterile conditions.
The cells are washed twice gently with Hank's Balanced Salt solution (e.g., use 10 mL per T-1 50 flask). The excess solution is removed and the cells bathed for 15-30 min. in an enzyme-free Cell Dissociation Buffer (e.g., use 8 mL Hank's Based, Gibco Cat. #13150-016 per T-150 flask) until cells are loosened. The contents are transferred to centrifuge tubes (50 mL size) kept in ice bath. All subsequent steps are done at 4° C. The tubes are centrifuged at 300×g for 15 min (1380 rpm on SORVAL, Model RT6000D, using rotor for 50 mL tubes). The supernatant is discarded and the cells suspended in homogenizing buffer (10 mM Tris-HCl containing 0.25 M sucrose and 1 mM EDTA, pH 7.4) ensuring that the volume of the buffer is about ten times the volume of the cell pellet. The cells are pooled into a centrifuge tube (50 mL) and homogenized with a Polytron at setting 6 for 10 sec. The homogenate is transferred into a Potter-Elvjehm homogenizer and homogenized with 3 strokes. The homogenate is centrifuged at 1500×g for 10 min at 4° C. (3100 rpm using SORVAL, model RT6000D, using rotor for 50 mL tubes). The pellet is discarded. The supernatant is centrifuged at 100,000×g for 60 min. at 4° C. (Beckman L8-80M ultracentrifuge; spin at 37,500 rpm with rotor type 70 Ti for 50 mL tubes; 38,000 rpm with type 80Ti for 15 mL tubes; or 35,800 rpm with rotor type 45Ti). The supernantant is discarded and the pellet suspended in 3 to 4 mL of Tris buffer (50 mM TRIS—HCl, pH 7.4). The protein content is estimated by the Bradford or Lowry method. The volume of the membrane suspension is adjusted with the membrane buffer (50 mM Tris-HCl containing 0.1% BSA and 0.1 mM PMSF) to give 3.0 mg/mL (or as appropriate) of protein. The membranes are aliquoted and stored at −70° C.
C. Radioligand Binding Assay
In wells of a 96-well format microtiter plate, is added 90, 110 or 130 μL (to make up a final volume of 200 μL) of assay buffer containing 50 mM of Tris-HCl (pH 7.4), […], 1 mg % aprotinin, 1 mg % leupeptin, 2 mg % 1,10-phenanthroline, 10 mg % trypsin inhibitor, and 0.1 mM PMSF. […]

Take `COc1cc(C(=O)N2Cc3ccc(C(=O)N(C)CC(O)CN(C)C)n3Cc3ccccc32)ccc1-c1ccccc1C(F)(F)F` (stereo not drawn) [Example 22, N-[(3-Dimethylamino)-2-hydroxy-propyl]-10-{[2-methoxy-2′-trifluoromethyl-[1,1′-biphenyl]-4-yl]carbonyl}-N-methyl-10,11-dihydro-5H-pyrrolo[2,1-c][1,4]benzodiazepine-3-carboxamide]: the IC50 came out at 1.47 nM.

For the compound `CC(=O)OCC(CN(C)C(=O)c1ccc2n1Cc1ccccc1N(C(=O)c1ccc(-c3ccccc3C(F)(F)F)c(C)c1)C2)OC(C)=O` (stereo not drawn) [Example 13, 2-(Acetyloxy)-1-({methyl[(10-{[2-methyl-2′-trifluoromethyl-[1,1′-biphenyl]-4-yl]carbonyl}-10,11-dihydro-5H-pyrrolo[2,1-c][1,4]benzodiazepin-3-yl)carbonyl]amino}methyl)ethyl acetate], the IC50 is 9.16 nM.

For the compound `Cc1cc(C(=O)N2Cc3ccc(C(=O)N(CCO)CCO)n3Cc3ccccc32)ccc1-c1ccccc1C(F)(F)F` [Example 1, 10-[(2-Methyl-2′-trifluoromethyl-[1,1′-biphenyl]-4-yl)carbonyl]-10,11-dihydro-5H-pyrrolo[2,1-c][1,4]benzodiazepine-3-carboxylic acid bis-(2-hydroxy-ethyl)-amide], the IC50 stood at 1.37 nM.

In the case of `COc1cc(-c2ccccc2C)c(Cl)cc1C(=O)N1Cc2ccc(C(=O)N3CCN(CCO)CC3)n2Cc2ccccc21` [Example 39, {10-[(6-Chloro-3-methoxy-2′-methyl[1,1′-biphenyl]-4-yl)carbonyl]-10,11-dihydro-5H-pyrrolo[2,1-c][1,4]benzodiazepin-3-yl}[4-(2-hydroxyethyl)-1-piperazinyl]methanone], the IC50 is 3 nM.

In the case of `COC[C@@H](O)CN1CCN(C(=O)c2ccc3n2Cc2ccccc2N(C(=O)c2ccc(-c4ccccc4C(F)(F)F)c(C)c2)C3)CC1` [Example 9, [3-({4-[(2S)-2-Hydroxy-3-methoxypropyl]-1-piperazinyl}carbonyl)-5H-pyrrolo[2,1-c][1,4]benzodiazepin-10(11H)-yl][2-methyl-2′-trifluoromethyl-[1,1′-biphenyl]-4-yl]methanone], the IC50 came out at 26.7 nM.

For `COc1ccccc1-c1ccc(C(=O)N2Cc3ccc(C(=O)N(C)C[C@H](O)[C@@H](O)[C@H](O)[C@H](O)CO)n3Cc3ccccc32)cc1C` [Example 17, 10-[(2′-Methoxy-2-methyl-[1,1′-biphenyl]-4-yl)carbonyl]-10,11-dihydro-5H-pyrrolo[2,1-c][1,4]benzodiazepine-3-carboxylic acid methyl-[(2S,3R,4R, 5R)-2,3,4,5,6-pentahydroxy-hexyl)-amide], the IC50 is 1.03 nM.

Regarding `Cc1cc(C(=O)N2Cc3ccc(C(=O)N(C)C[C@@H]4OC(=O)O[C@H]4[C@H](O)[C@H]4COC(=O)O4)n3Cc3ccccc32)ccc1-c1ccccc1C(F)(F)F` [Example 12, N-[((4S,5S)-5-{(R)-Hydroxy[(4R)-2-oxo-1,3-dioxolan-4-yl]methyl}-2-oxo-1,3-dioxolan-4-yl)methyl]-N-methyl-10-{[2-methyl-2′-(trifluoromethyl)[1,1′-biphenyl]-4-yl]carbonyl}-10,11-dihydro-5H-pyrrolo[2,1-c]benzodiazepine-3-carboxamide], the IC50 amounted to 4.27 nM.

As to `Cc1cc(C(=O)N2Cc3ccc(C(=O)N(C)CC(O)CO)n3Cc3ccccc32)ccc1-c1ccccc1C(F)(F)F` (stereo not drawn) [Example 2, 10-[(2-Methyl-2′-trifluoromethyl-[1,1′-biphenyl]-4-yl)carbonyl]-10,11-dihydro-5H-pyrrolo[2,1-c][1,4]benzodiazepine-3-carboxylic acid (2,3-dihydroxy-propyl)-methyl-amide], the IC50 was found to be 3.09 nM.

Take `O=C(c1ccc2n1Cc1ccccc1N(C(=O)c1ccc(-c3cccc4ccccc34)cc1Cl)C2)N1CCN(CCO)CC1` [Example 25, 2-{4-[10-{[2-Chloro-4-(naphthalen-1-yl)phenyl]carbonyl}-(10,11-dihydro-5H-pyrrolo[2,1-c][1,4]benzodiazepin-3-yl)carbonyl]piperazine-1-yl}-1-hydroxyethane]: the inhibition at 0.1 µM amounted to 20%.

In the case of `COc1ccccc1-c1ccc(C(=O)N2Cc3ccc(C(=O)N(C)CC(O)CO)n3Cc3ccccc32)cc1C` (stereo not drawn) [Example 14, 10-[(2′-Methoxy-2-methyl-[1,1′-biphenyl]-4-yl)carbonyl]-10,11-dihydro-5H-pyrrolo[2,1-c][1,4]benzodiazepine-3-carboxylic acid (2,3-dihydroxy-propyl)-methyl-amide], the IC50 was determined as 1.9 nM.

For the compound `COc1ccccc1-c1ccc(C(=O)N2Cc3ccc(C(=O)N(C)C[C@@H](O)CO)n3Cc3ccccc32)cc1C` (single isomer, unassigned) [Example 16], the inhibition at 0.1 µM was 101%.

Take `COc1cc2c(cc1OC)N(C(=O)c1ccc(-c3ccccc3OC)c(C)c1)Cc1ccc(C(=O)N(C)C[C@H](O)[C@@H](O)[C@H](O)[C@H](O)CO)n1C2` [Example 37, 7,8-Dimethoxy-10-[(2′-methoxy-2-methyl-[1,1′-biphenyl]-4-yl)carbonyl]-10,11-dihydro-5H-pyrrolo[2,1-c][1,4]benzodiazepine-3-carboxylic acid methyl-[(2S, 3R, 4R, 5R)-2,3,4,5,6-pentahydroxy-hexyl)-amide]: the inhibition at 0.1 µM was 53%.

Turning to `COc1cccc(-c2ccc(C(=O)N3Cc4ccc(C(=O)N5CCN(CCO)CC5)n4Cc4ccccc43)cc2OC)c1` [Example 50, {10-[(2,3′-Dimethoxy[1,1′-biphenyl]-4-yl)carbonyl]-10,11-dihydro-5H-pyrrolo[2,1-c][1,4]benzodiazepin-3-yl}[4-(2-hydroxyethyl)-1-piperazinyl]methanone], the inhibition at 0.1 µM came to 83%.

In the case of `COc1cccc(-c2cc(OC)c(C(=O)N3Cc4ccc(C(=O)N5CCN(CCO)CC5)n4Cc4ccccc43)cc2Cl)c1` [Example 49, {10-[(6-Chloro-3,3′-dimethoxy[1,1′-biphenyl]-4-yl)carbonyl]-10,11-dihydro-5H-pyrrolo[2,1-c][1,4]benzodiazepin-3-yl}[4-(2-hydroxyethyl)-1-piperazinyl]methanone], the inhibition at 0.1 µM was 81%.

`Cc1cc(C(=O)N2Cc3ccc(C(=O)N4CCN(C[C@@H](O)CO)CC4)n3Cc3ccccc32)ccc1-c1ccccc1C(F)(F)F` [Example 6, (2R)-3-{4-[(10-{[2-Methyl-2′-trifluoromethyl-[1,1′-biphenyl]-4-yl]carbonyl}-10,11-dihydro-5H-pyrrolo[2,1-c][1,4]benzodiazepin-3-yl)carbonyl]piperazin-1-yl}propane-1,2-diol]: the IC50 was determined as 25.1 nM.
